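Five concentrations, 48 hours, 96-well plates. At the TGI there is no net growth.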
Columns and labels:
Assay in all cases: growth of human tumour cells (NCI), 48 h
786-0 renal = test system: 786-0 renal
A549 NSCLC = test system: A549 NSCLC
ACHN renal = test system: ACHN renal
BT-549 breast = test system: BT-549 breast
CAKI-1 renal = test system: CAKI-1 renal
CCRF-CEM leukemia = test system: CCRF-CEM leukemia
COLO 205 colon = test system: COLO 205 colon
DU-145 prostate = test system: DU-145 prostate
EKVX NSCLC = test system: EKVX NSCLC
HCC-2998 colon = test system: HCC-2998 colon
HCT-116 colon = test system: HCT-116 colon
HCT-15 colon = test system: HCT-15 colon
HL-60(TB) leukemia = test system: HL-60(TB) leukemia
HOP-92 NSCLC = test system: HOP-92 NSCLC
HS 578T breast = test system: HS 578T breast
IGROV1 ovarian = test system: IGROV1 ovarian
K-562 leukemia = test system: K-562 leukemia
KM12 colon = test system: KM12 colon
LOX IMVI melanoma = test system: LOX IMVI melanoma
M14 melanoma = test system: M14 melanoma
MALME-3M melanoma = test system: MALME-3M melanoma
MCF7 breast = test system: MCF7 breast
MDA-MB-231 breast = test system: MDA-MB-231 breast
MDA-MB-435 = test system: MDA-MB-435
MDA-N = test system: MDA-N
MOLT-4 leukemia = test system: MOLT-4 leukemia
NCI-H226 lung = test system: NCI-H226 lung
NCI-H460 lung = test system: NCI-H460 lung
NCI-H522 lung = test system: NCI-H522 lung
NCI/ADR-RES ovarian = test system: NCI/ADR-RES ovarian
OVCAR-3 ovarian = test system: OVCAR-3 ovarian
OVCAR-4 ovarian = test system: OVCAR-4 ovarian
OVCAR-5 ovarian = test system: OVCAR-5 ovarian
OVCAR-8 ovarian = test system: OVCAR-8 ovarian
PC-3 prostate = test system: PC-3 prostate
RPMI-8226 leukemia = test system: RPMI-8226 leukemia
RXF 393 renal = test system: RXF 393 renal
SF-268 CNS = test system: SF-268 CNS
SF-295 CNS = test system: SF-295 CNS
SF-539 CNS = test system: SF-539 CNS
SK-MEL-2 melanoma = test system: SK-MEL-2 melanoma
SK-MEL-28 melanoma = test system: SK-MEL-28 melanoma
SK-MEL-5 melanoma = test system: SK-MEL-5 melanoma
SN12C renal = test system: SN12C renal
SNB-19 CNS = test system: SNB-19 CNS
SNB-75 CNS = test system: SNB-75 CNS
SR leukemia = test system: SR leukemia
SW-620 colon = test system: SW-620 colon
T-47D breast = test system: T-47D breast
TK-10 renal = test system: TK-10 renal
U251 CNS = test system: U251 CNS
UACC-257 melanoma = test system: UACC-257 melanoma
UACC-62 melanoma = test system: UACC-62 melanoma
UO-31 renal = test system: UO-31 renal
HOP-62 NSCLC = test system: HOP-62 NSCLC
HT29 colon = test system: HT29 colon
NCI-H23 lung = test system: NCI-H23 lung
SK-OV-3 ovarian = test system: SK-OV-3 ovarian

Question: For `Cc1cc2c(cc1C)C(=O)C1(C2)Cc2c(ccc(C)c2C)C1=O` (centres undefined), which TGI (786-0 renal) is on record?
Answer: > 100 µM

Question: What about the TGI (A549 NSCLC) of the same molecule?
Answer: > 100 µM

Question: And the TGI (ACHN renal)?
Answer: > 100 µM

Question: What about the TGI (BT-549 breast) of the same molecule?
Answer: > 100 µM

Question: And the TGI (CAKI-1 renal)?
Answer: > 100 µM

Question: What about the TGI (CCRF-CEM leukemia) of the same molecule?
Answer: > 100 µM

Question: What about the TGI (COLO 205 colon) of the same molecule?
Answer: > 100 µM

Question: And the TGI (DU-145 prostate)?
Answer: > 100 µM

Question: What about the TGI (EKVX NSCLC) of the same molecule?
Answer: > 100 µM

Question: What about the TGI (HCC-2998 colon) of the same molecule?
Answer: > 100 µM

Question: And the TGI (HCT-116 colon)?
Answer: > 100 µM

Question: And the TGI (HCT-15 colon)?
Answer: > 100 µM

Question: And the TGI (HL-60(TB) leukemia)?
Answer: > 100 µM

Question: And the TGI (HOP-92 NSCLC)?
Answer: > 100 µM

Question: What about the TGI (HS 578T breast) of the same molecule?
Answer: > 100 µM

Question: And the TGI (IGROV1 ovarian)?
Answer: > 100 µM

Question: And the TGI (K-562 leukemia)?
Answer: > 100 µM

Question: And the TGI (KM12 colon)?
Answer: > 100 µM

Question: And the TGI (LOX IMVI melanoma)?
Answer: > 100 µM

Question: And the TGI (M14 melanoma)?
Answer: > 100 µM

Question: And the TGI (MALME-3M melanoma)?
Answer: > 100 µM

Question: What about the TGI (MCF7 breast) of the same molecule?
Answer: > 100 µM

Question: What about the TGI (MDA-MB-231 breast) of the same molecule?
Answer: > 100 µM

Question: And the TGI (MDA-MB-435)?
Answer: > 100 µM

Question: And the TGI (MDA-N)?
Answer: > 100 µM

Question: What about the TGI (MOLT-4 leukemia) of the same molecule?
Answer: > 100 µM

Question: And the TGI (NCI-H226 lung)?
Answer: > 100 µM

Question: What about the TGI (NCI-H460 lung) of the same molecule?
Answer: > 100 µM

Question: What about the TGI (NCI-H522 lung) of the same molecule?
Answer: > 100 µM

Question: What about the TGI (NCI/ADR-RES ovarian) of the same molecule?
Answer: > 100 µM

Question: What about the TGI (OVCAR-3 ovarian) of the same molecule?
Answer: > 100 µM

Question: And the TGI (OVCAR-4 ovarian)?
Answer: > 100 µM

Question: And the TGI (OVCAR-5 ovarian)?
Answer: > 100 µM

Question: What about the TGI (OVCAR-8 ovarian) of the same molecule?
Answer: > 100 µM

Question: And the TGI (PC-3 prostate)?
Answer: > 100 µM

Question: What about the TGI (RPMI-8226 leukemia) of the same molecule?
Answer: > 100 µM

Question: And the TGI (RXF 393 renal)?
Answer: > 100 µM

Question: What about the TGI (SF-268 CNS) of the same molecule?
Answer: > 100 µM

Question: And the TGI (SF-295 CNS)?
Answer: > 100 µM

Question: What about the TGI (SF-539 CNS) of the same molecule?
Answer: > 100 µM

Question: What about the TGI (SK-MEL-2 melanoma) of the same molecule?
Answer: > 100 µM

Question: What about the TGI (SK-MEL-28 melanoma) of the same molecule?
Answer: > 100 µM

Question: What about the TGI (SK-MEL-5 melanoma) of the same molecule?
Answer: > 100 µM

Question: And the TGI (SN12C renal)?
Answer: > 100 µM

Question: And the TGI (SNB-19 CNS)?
Answer: > 100 µM

Question: What about the TGI (SNB-75 CNS) of the same molecule?
Answer: > 100 µM

Question: What about the TGI (SR leukemia) of the same molecule?
Answer: > 100 µM

Question: What about the TGI (SW-620 colon) of the same molecule?
Answer: > 100 µM

Question: And the TGI (T-47D breast)?
Answer: > 100 µM

Question: And the TGI (TK-10 renal)?
Answer: > 100 µM

Question: And the TGI (U251 CNS)?
Answer: > 100 µM

Question: And the TGI (UACC-257 melanoma)?
Answer: > 100 µM

Question: What about the TGI (UACC-62 melanoma) of the same molecule?
Answer: > 100 µM

Question: And the TGI (UO-31 renal)?
Answer: > 100 µM

Question: For `Nc1ccc(Nc2c3ccccc3nc3ccccc23)cc1`, which TGI (786-0 renal) is on record?
Answer: > 10 µM

Question: What about the TGI (A549 NSCLC) of the same molecule?
Answer: > 10 µM

Question: And the TGI (ACHN renal)?
Answer: 4.58 µM

Question: And the TGI (BT-549 breast)?
Answer: > 10 µM

Question: What about the TGI (CAKI-1 renal) of the same molecule?
Answer: 6.94 µM

Question: What about the TGI (CCRF-CEM leukemia) of the same molecule?
Answer: 6.19 µM

Question: What about the TGI (COLO 205 colon) of the same molecule?
Answer: > 10 µM

Question: What about the TGI (DU-145 prostate) of the same molecule?
Answer: > 10 µM

Question: And the TGI (EKVX NSCLC)?
Answer: > 10 µM

Question: And the TGI (HCC-2998 colon)?
Answer: > 10 µM

Question: What about the TGI (HCT-116 colon) of the same molecule?
Answer: 9.52 µM

Question: And the TGI (HCT-15 colon)?
Answer: > 10 µM

Question: And the TGI (HL-60(TB) leukemia)?
Answer: > 10 µM

Question: What about the TGI (HOP-62 NSCLC) of the same molecule?
Answer: > 10 µM

Question: What about the TGI (HS 578T breast) of the same molecule?
Answer: > 10 µM

Question: And the TGI (HT29 colon)?
Answer: > 10 µM

Question: What about the TGI (IGROV1 ovarian) of the same molecule?
Answer: > 10 µM

Question: What about the TGI (K-562 leukemia) of the same molecule?
Answer: > 10 µM

Question: What about the TGI (KM12 colon) of the same molecule?
Answer: > 10 µM

Question: And the TGI (LOX IMVI melanoma)?
Answer: 2.35 µM

Question: And the TGI (M14 melanoma)?
Answer: > 10 µM

Question: And the TGI (MALME-3M melanoma)?
Answer: 8.96 µM

Question: What about the TGI (MCF7 breast) of the same molecule?
Answer: > 10 µM

Question: And the TGI (MDA-MB-231 breast)?
Answer: > 10 µM

Question: And the TGI (MDA-MB-435)?
Answer: > 10 µM

Question: And the TGI (MDA-N)?
Answer: > 10 µM

Question: And the TGI (MOLT-4 leukemia)?
Answer: > 10 µM

Question: What about the TGI (NCI-H226 lung) of the same molecule?
Answer: 7.52 µM

Question: What about the TGI (NCI-H23 lung) of the same molecule?
Answer: > 10 µM

Question: And the TGI (NCI-H460 lung)?
Answer: 8.07 µM

Question: What about the TGI (NCI-H522 lung) of the same molecule?
Answer: > 10 µM

Question: And the TGI (NCI/ADR-RES ovarian)?
Answer: > 10 µM

Question: And the TGI (OVCAR-3 ovarian)?
Answer: > 10 µM

Question: And the TGI (OVCAR-4 ovarian)?
Answer: > 10 µM

Question: And the TGI (OVCAR-5 ovarian)?
Answer: > 10 µM

Question: And the TGI (OVCAR-8 ovarian)?
Answer: > 10 µM

Question: And the TGI (PC-3 prostate)?
Answer: > 10 µM

Question: What about the TGI (RPMI-8226 leukemia) of the same molecule?
Answer: > 10 µM

Question: And the TGI (RXF 393 renal)?
Answer: > 10 µM

Question: What about the TGI (SF-268 CNS) of the same molecule?
Answer: > 10 µM

Question: What about the TGI (SF-295 CNS) of the same molecule?
Answer: > 10 µM

Question: What about the TGI (SF-539 CNS) of the same molecule?
Answer: > 10 µM

Question: What about the TGI (SK-MEL-2 melanoma) of the same molecule?
Answer: > 10 µM

Question: What about the TGI (SK-MEL-28 melanoma) of the same molecule?
Answer: > 10 µM

Question: And the TGI (SK-MEL-5 melanoma)?
Answer: > 10 µM

Question: And the TGI (SK-OV-3 ovarian)?
Answer: > 10 µM

Question: What about the TGI (SN12C renal) of the same molecule?
Answer: > 10 µM

Question: And the TGI (SNB-19 CNS)?
Answer: > 10 µM

Question: And the TGI (SR leukemia)?
Answer: > 10 µM

Question: And the TGI (SW-620 colon)?
Answer: > 10 µM

Question: What about the TGI (T-47D breast) of the same molecule?
Answer: > 10 µM

Question: What about the TGI (TK-10 renal) of the same molecule?
Answer: > 10 µM

Question: What about the TGI (U251 CNS) of the same molecule?
Answer: > 10 µM

Question: And the TGI (UACC-257 melanoma)?
Answer: > 10 µM

Question: And the TGI (UACC-62 melanoma)?
Answer: 5.22 µM
